From patent publication US9072751B2, “Na/K-ATPase ligand” (priority 2006, dated 2015) come the findings set out here.

The test system of data set [1] is isolated cardiac fibroblasts. Nature of the data set: Radiolabeled proline incorporation into collagen (collagen synthesis) in cardiac fibroblasts. In kind it is cell-based, rat. The following applies: 10^−9 and 10^−8 M. As for the experimental part: (§1) Preparation of adult rat cardiac fibroblasts was performed as described previously by Brilla et al. with modifications.
Collagen synthesis rates were determined by the method of Nishida et al. with modification.
(§2) To further examine the molecular basis of this cardiac fibrosis, isolated cardiac fibroblasts were subjected to increase doses of MBG (10^−10, 10^−9, and 10^−8 M). […] Using collagenase digestion, we observed that the vast majority of the proline incorporation was into collagen. Using standardized RT-PCR, we observed a doubling of mRNA for collagen-1 at 24 hours in response to 10 nM of MBG.
(§3) Representative Western blot for procollagen and quantitative densitometric data obtained in response to different doses of (a) MBG (all N=10), (b) MBG 10 nM contrasted with different doses of ouabain (0.1 to 100 nM) and digoxin (10 nM; all N=8). c, ouabain sensitive Rb uptake as a function of MBG and ouabain concentration (N=4 at each concentration for both MBG and ouabain; data expressed as fraction of control). d, relative proline incorporation in the supernatant and matrix, both will and without collagenase digestion (total). Each group (controls and different doses of MBG) contains N=7 replicants. The difference between the total and after collagenase digestion is reported as collagen. The matrix is the sample that was obtained after removing supernatant and scraping the culture dish. e, mRNA for collagen 1 in MBG-treated (10 nM; N=8) or control (N=8) fibroblasts. f, procollagen stability after cycloheximide treatment. Time 0 is 1 hour after incubation with cycloheximide (20 μg/mL). […] Least-square regression line fit to control (CTL) and MBG data. Bars on quantitative graphs represent the mean.+−.SEM. *P<0.05 and **P<0.01 vs control.
(§4) The effects of PP2 (1 μmol/L), herbimycin (1 μmol/L), AG1478 (250 nM), and N-acetyl cysteine (2.5 mmol/L) on MBG (10 nM) stimulation of procollagen expression also were found. The PP2, herbimycin AG1478, and N-acetyl cysteine were administered from 2 hours before the addition of MBG and continued throughout the 24 hours of MBG incubation (total of 26 hours). Each bar represents the mean.+−.SEM of n=8 experiments. b, effects of PP2 (1 μmol/L) and N-acetyle cysteine (2.5 mmol/L) on MBG (10 nM)-stimulated proline incorporation into collagen. Again, the PP2 an N-acetyl cysteine were added 2 hours before exposure to MBG. Each bar represents the mean.+−.SEM of N=5 experiments. c, effects of MBG 10 nM on procollagen content in SYF and SYF+ cells. Representative Western blots are shown above quantitative data. SYF blots loaded with 15 μg of protein and SYF+blots loaded with 10 μg of protein. Each bar represents the mean.+−SEM of N-6 determinations In each group. **[…] vs. control.
(§5) The effect of 24 hours of MBG (1 and 10 nM) on TGF-β, Smad 2/3, Smad 4, and pSmad 2/3 expression determined by Western blot. b and c, effects of 24 hours of MBG (10 nM), TGFβ(5 ng/mL), and the TGF-β receptor antagonist SB431542 ([…] on procollagen-1 expression (Western blot) and radiolabeled proline incorporation, respectively also were carried out. SB431542 was added 2 hours before exposure to either TGFβ or MBG (total of 26-hour exposure). Each bar represents the mean.+−.SEM of 6 to 8 determinations. *P<0.05, **P<0.01 vs. control.

Data set [2] can be described thus: Plasma MBG and aldosterone 4 weeks after MBG minipump infusion in rats. In kind it is in vivo, Sprague-Dawley rats. The following applies: mean ± SEM. As for the experimental part: Male, Sprague-Dawley rats were used for all of the studies. All of the animal experimentation described in the article was conducted in accordance with the National Institutes of Health Guide for the Care and use of Laboratory Animals using protocols approved by the Medical University of Ohio Institutional Animal Use and Care Committee.
Briefly, Sprague-Dawley rats weighing.apprxeq.250 g at the time of surgery were subjected to either sham surgery with no MBG infusion (Sham), sham surgery with placement of a minipump infusing MBG at 10 μg/kg per day (MBG), PNx, and PNx after immunization against MBG (PNx-IM). MBG of extremely high purity (>99%) was isolated from the venom of Bufa marinas by Kennedy et al. In addition to these maneuvers, a group of PNx animals was subjected to adrenalectomy as well (PNx-ADx).
(determined after extraction on a C-18 column using DELPHIA as described previously), aldosterone (determined with ELISA kit 10004377, Cayman Chemical) and cardiac immunohistochemistry (vida infra) were assessed 4 weeks after surgery.

A further data set has as its system dermal fibroblasts. Nature of the data set: Collagen expression in human dermal fibroblasts. The following applies: 5 or 10 nM. In kind it is cell-based. The source says:
(§6) We next examined whether skin fibroblasts lines had similar response. This was done with dermal fibroblasts kindly provided by Dr. Bashar Kahaleh. […] The magnitude of this response is illustrated by comparison to maximal doses of TGFβ, the “classic” stimulus for fibrosis (see below). In addition, we observed that an immortalized fibroblast line responded similarly to MBG, ouabain and digoxin.
(§7) Response of dermal fibroblasts to MBG as compared with TGF beta. Note that increase in collagen expression in MBG is approximately 10 fold with 5 or 10 nM MBG.

The test system of data set [3] is isolated cardiac fibroblasts. Nature of the data set: Procollagen stability after cycloheximide in cardiac fibroblasts. It counts as cell-based, rat. The following applies: 10 nM. As for the experimental part: as §2
(§8) Representative Western blot for procollagen and quantitative densitometric data obtained in response to different doses of (a) MBG (all N=10), (b) MBG 10 nM contrasted with different doses of ouabain (0.1 to 100 nM) and digoxin (10 nM; all N=8). c, ouabain sensitive Rb uptake as a function of MBG and ouabain concentration (N=4 at each concentration for both MBG and ouabain; data expressed as fraction of control). d, relative proline incorporation in the supernatant and matrix, both will and without collagenase digestion (total). Each group (controls and different doses of MBG) contains N=7 replicants. The difference between the total and after collagenase digestion is reported as collagen. […] Bars on quantitative graphs represent the mean.+−.SEM. *P<0.05 and **P<0.01 vs control.

Another data set deals with fibroblast cell line. Nature of the data set: Procollagen expression in immortalized fibroblast cell line (Western blot). In kind it is cell-based.
Excerpt: as §6, §7

Data set [4] relates to isolated cardiac fibroblasts. It counts as cell-based, rat. The following applies: 24 hours. As for the experimental part:
as §1
Western blot analysis was performed on protein isolated from tissue homogenates, cell culture whole cell lysates, or nuclear extracts as described previously.
as §3
as §4, with “The” for “The effects of PP2 (1 μmol/L), herbimycin (1 μmol/L), AG1478 (250 nM), and N-acetyl cysteine (2.5 mmol/L) on MBG (10 nM) stimulation of procollagen expression also were found. The”
as §5

For a further data set, the target named is T1, Na/K-ATPase (Rattus norvegicus, UniProt P06685).
T1 construct: In vitro studies were then pursued with cultured isolated cardiac fibroblasts; endogenous in cells; host or cells: primary isolated cardiac fibroblasts in culture
The data set is described as follows: Ouabain sensitive 86Rb uptake in cardiac fibroblasts. In kind it is cell-based. How it is done:
as §2, §8

Read-outs that look alike come from different tables or passages of the source.

As to `C[C@]12CC[C@H](O)C[C@@]1(O)CC[C@@H]1[C@@H]2CC[C@]2(C)[C@@H](c3ccc(=O)oc3)C[C@H]3O[C@]132` [MBG, marinobufagenin], the “Proline incorporation into total protein, matrix and supernatant” value in data set [1] is “significant increases”. Also, the “Plasma MBG” value in data set [2] (MBG infusion 10 μg/kg per day by minipump) is 484 ± 47 pmol/L. In data set [2] (MBG infusion 10 μg/kg per day), the Plasma aldosterone is reported as 205 ± 35 pg/mL. For the same compound, the “Increase in collagen expression” value in the data set with dermal fibroblasts is listed as “approximately 10 fold”. Moreover, the “Procollagen stability (procollagen-1 expression after cycloheximide)” value in data set [3] was “did not detect any increases”. The “Effect on fibroblast cell line expression of procollagen” value in the data set with fibroblast cell line was “Comparable effect”. In addition, the “Increase of procollagen content (Western blot)” value in data set [4] (10^−8 M) and in data set [4] (10^−9 M) was “about 2 fold” each time. Moreover, the “Threshold for inducing collagen expression relative to doses with detectable effects on 86Rb uptake” value on Na/K-ATPase is “log units below”.
